{"source": "PubChem BioAssay (NCI)", "experiment_in_all_cases": "NCI-60 cell line screen, 48 h", "key": {"HT29 colon": {"test_system": "HT29 colon"}, "HCT-15 colon": {"test_system": "HCT-15 colon"}, "OVCAR-3 ovarian": {"test_system": "OVCAR-3 ovarian"}, "UO-31 renal": {"test_system": "UO-31 renal"}, "DU-145 prostate": {"test_system": "DU-145 prostate"}, "COLO 205 colon": {"test_system": "COLO 205 colon"}, "TK-10 renal": {"test_system": "TK-10 renal"}, "OVCAR-8 ovarian": {"test_system": "OVCAR-8 ovarian"}, "ACHN renal": {"test_system": "ACHN renal"}, "M14 melanoma": {"test_system": "M14 melanoma"}, "MDA-N": {"test_system": "MDA-N"}, "NCI-H522 lung": {"test_system": "NCI-H522 lung"}, "PC-3 prostate": {"test_system": "PC-3 prostate"}, "KM12 colon": {"test_system": "KM12 colon"}, "SR leukemia": {"test_system": "SR leukemia"}, "MOLT-4 leukemia": {"test_system": "MOLT-4 leukemia"}, "A498 renal": {"test_system": "A498 renal"}, "RPMI-8226 leukemia": {"test_system": "RPMI-8226 leukemia"}, "EKVX NSCLC": {"test_system": "EKVX NSCLC"}, "NCI-H23 lung": {"test_system": "NCI-H23 lung"}, "LOX IMVI melanoma": {"test_system": "LOX IMVI melanoma"}, "MDA-MB-435": {"test_system": "MDA-MB-435"}, "OVCAR-5 ovarian": {"test_system": "OVCAR-5 ovarian"}, "MCF7 breast": {"test_system": "MCF7 breast"}, "T-47D breast": {"test_system": "T-47D breast"}, "CAKI-1 renal": {"test_system": "CAKI-1 renal"}, "OVCAR-4 ovarian": {"test_system": "OVCAR-4 ovarian"}, "NCI-H226 lung": {"test_system": "NCI-H226 lung"}, "MALME-3M melanoma": {"test_system": "MALME-3M melanoma"}, "NCI-H460 lung": {"test_system": "NCI-H460 lung"}, "HS 578T breast": {"test_system": "HS 578T breast"}, "UACC-257 melanoma": {"test_system": "UACC-257 melanoma"}, "U251 CNS": {"test_system": "U251 CNS"}, "SK-MEL-5 melanoma": {"test_system": "SK-MEL-5 melanoma"}, "HOP-92 NSCLC": {"test_system": "HOP-92 NSCLC"}, "IGROV1 ovarian": {"test_system": "IGROV1 ovarian"}, "K-562 leukemia": {"test_system": "K-562 leukemia"}, "MDA-MB-231 breast": {"test_system": "MDA-MB-231 breast"}, "NCI/ADR-RES ovarian": {"test_system": "NCI/ADR-RES ovarian"}, "SNB-75 CNS": {"test_system": "SNB-75 CNS"}, "SK-OV-3 ovarian": {"test_system": "SK-OV-3 ovarian"}, "786-0 renal": {"test_system": "786-0 renal"}, "SF-295 CNS": {"test_system": "SF-295 CNS"}, "HCC-2998 colon": {"test_system": "HCC-2998 colon"}, "SW-620 colon": {"test_system": "SW-620 colon"}, "SK-MEL-2 melanoma": {"test_system": "SK-MEL-2 melanoma"}, "SN12C renal": {"test_system": "SN12C renal"}, "A549 NSCLC": {"test_system": "A549 NSCLC"}, "BT-549 breast": {"test_system": "BT-549 breast"}, "SNB-19 CNS": {"test_system": "SNB-19 CNS"}, "SK-MEL-28 melanoma": {"test_system": "SK-MEL-28 melanoma"}, "HOP-62 NSCLC": {"test_system": "HOP-62 NSCLC"}, "SF-268 CNS": {"test_system": "SF-268 CNS"}}, "note": "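Values below derive from 48-hour exposures of cells grown in 96-well plates, with endpoints linearly interpolated between the two concentrations bracketing the appropriate inhibition level. TGI: concentration producing complete growth inhibition.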", "data": [{"smiles": "COc1ccc(N2C(=O)C3c4[nH]c5c(C)cccc5c4C4CCC(C(C)C)CC4C3C2=O)cc1", "note": "(stereo not drawn)", "values": [{"measurement": "TGI", "setting": "HT29 colon", "result": 13.8, "unit": "µM"}, {"measurement": "TGI", "setting": "HCT-15 colon", "result": 40.6, "unit": "µM"}, {"measurement": "TGI", "setting": "OVCAR-3 ovarian", "result": 28.4, "unit": "µM"}, {"measurement": "TGI", "setting": "UO-31 renal", "result": 31.4, "unit": "µM"}, {"measurement": "TGI", "setting": "DU-145 prostate", "result": 31.2, "unit": "µM"}, {"measurement": "TGI", "setting": "COLO 205 colon", "result": "> 100", "unit": "µM"}, {"measurement": "TGI", "setting": "TK-10 renal", "result": 76.8, "unit": "µM"}, {"measurement": "TGI", "setting": "OVCAR-8 ovarian", "result": 42.9, "unit": "µM"}, {"measurement": "TGI", "setting": "ACHN renal", "result": 47.2, "unit": "µM"}, {"measurement": "TGI", "setting": "M14 melanoma", "result": 26.8, "unit": "µM"}, {"measurement": "TGI", "setting": "MDA-N", "result": 29.2, "unit": "µM"}, {"measurement": "TGI", "setting": "NCI-H522 lung", "result": 27.2, "unit": "µM"}, {"measurement": "TGI", "setting": "PC-3 prostate", "result": 25.2, "unit": "µM"}, {"measurement": "TGI", "setting": "KM12 colon", "result": 19.9, "unit": "µM"}, {"measurement": "TGI", "setting": "SR leukemia", "result": 32.5, "unit": "µM"}, {"measurement": "TGI", "setting": "MOLT-4 leukemia", "result": 11.2, "unit": "µM"}, {"measurement": "TGI", "setting": "A498 renal", "result": 32.8, "unit": "µM"}, {"measurement": "TGI", "setting": "RPMI-8226 leukemia", "result": "> 100", "unit": "µM"}, {"measurement": "TGI", "setting": "EKVX NSCLC", "result": 40.6, "unit": "µM"}, {"measurement": "TGI", "setting": "NCI-H23 lung", "result": 40.7, "unit": "µM"}, {"measurement": "TGI", "setting": "LOX IMVI melanoma", "result": 19.3, "unit": "µM"}, {"measurement": "TGI", "setting": "MDA-MB-435", "result": 23.3, "unit": "µM"}, {"measurement": "TGI", "setting": "OVCAR-5 ovarian", "result": 29.7, "unit": "µM"}, {"measurement": "TGI", "setting": "MCF7 breast", "result": 31.4, "unit": "µM"}, {"measurement": "TGI", "setting": "T-47D breast", "result": 48.6, "unit": "µM"}, {"measurement": "TGI", "setting": "CAKI-1 renal", "result": 37.6, "unit": "µM"}, {"measurement": "TGI", "setting": "OVCAR-4 ovarian", "result": 42.3, "unit": "µM"}, {"measurement": "TGI", "setting": "NCI-H226 lung", "result": 36.1, "unit": "µM"}, {"measurement": "TGI", "setting": "MALME-3M melanoma", "result": 36.8, "unit": "µM"}, {"measurement": "TGI", "setting": "NCI-H460 lung", "result": 39.7, "unit": "µM"}, {"measurement": "TGI", "setting": "HS 578T breast", "result": 27.7, "unit": "µM"}, {"measurement": "TGI", "setting": "UACC-257 melanoma", "result": "> 100", "unit": "µM"}, {"measurement": "TGI", "setting": "U251 CNS", "result": 29.9, "unit": "µM"}, {"measurement": "TGI", "setting": "SK-MEL-5 melanoma", "result": "> 100", "unit": "µM"}, {"measurement": "TGI", "setting": "HOP-92 NSCLC", "result": 34.4, "unit": "µM"}, {"measurement": "TGI", "setting": "IGROV1 ovarian", "result": 23.5, "unit": "µM"}, {"measurement": "TGI", "setting": "K-562 leukemia", "result": 5.86, "unit": "µM"}, {"measurement": "TGI", "setting": "MDA-MB-231 breast", "result": 34.8, "unit": "µM"}, {"measurement": "TGI", "setting": "NCI/ADR-RES ovarian", "result": 51.1, "unit": "µM"}, {"measurement": "TGI", "setting": "SNB-75 CNS", "result": 9.4, "unit": "µM"}, {"measurement": "TGI", "setting": "SK-OV-3 ovarian", "result": 47.7, "unit": "µM"}, {"measurement": "TGI", "setting": "786-0 renal", "result": 19.5, "unit": "µM"}, {"measurement": "TGI", "setting": "SF-295 CNS", "result": 38.3, "unit": "µM"}, {"measurement": "TGI", "setting": "HCC-2998 colon", "result": 28.8, "unit": "µM"}, {"measurement": "TGI", "setting": "SW-620 colon", "result": 45.7, "unit": "µM"}, {"measurement": "TGI", "setting": "SK-MEL-2 melanoma", "result": 35.3, "unit": "µM"}, {"measurement": "TGI", "setting": "SN12C renal", "result": 98, "unit": "µM"}, {"measurement": "TGI", "setting": "A549 NSCLC", "result": "> 100", "unit": "µM"}, {"measurement": "TGI", "setting": "BT-549 breast", "result": 56, "unit": "µM"}, {"measurement": "TGI", "setting": "SNB-19 CNS", "result": "> 100", "unit": "µM"}, {"measurement": "TGI", "setting": "SK-MEL-28 melanoma", "result": 31.5, "unit": "µM"}, {"measurement": "TGI", "setting": "HOP-62 NSCLC", "result": 22.7, "unit": "µM"}, {"measurement": "TGI", "setting": "SF-268 CNS", "result": 22, "unit": "µM"}]}]}
